These results are taken from publication PMC11339918, “Extracellular Domain of IL-10 Receptor Chain-2 (IL-10R2) and Its Arginine-Containing Peptides Are Susceptible Substrates for Human Prostate Kallikrein-2 (KLK2)” (Biochemistry, 2024).

In one assay the test system is KLK2. In words: Effects of salts and glycosaminoglycans on KLK2 hydrolysis of Abz-KLRSSKQ-EDDnp. The format is biochemical, human. Conditions: 20 mM Tris–HCl, 1 mM EDTA, 5.0 μM Abz-KLRSSKQ-EDDnp, [E] = 1.58 nM, 37 °C, pH 8.0. On the procedure:
Bovine lung heparin was prepared as previously reported;[16] dermatan sulfate (12 000 Da) and chondroitin sulfate (25 000 Da) were purchased from Seikagaku Kogyo Co. (Tokyo, Japan), and heparan sulfate (16 000 Da) from the bovine lung was a generous gift from Dr. P. Bianchini (Opocrin Research Laboratories, Modena, Italy).
Figure 1 KLK2 hydrolysis of Abz-KLRSSKQ-EDDnp. (A) Effects of sodium citrate, sodium sulfate, and sodium chloride on the FRET-peptide hydrolysis by KLK2. (B) pH profile for the KLK2 activity. (C) Effects of glycosaminoglycans on KLK2 activity. Assays were carried out in 20 mM Tris–HCl, 1 mM EDTA, and 5.0 μM substrate; [E] = 1.58 nM at 37 °C and pH 8.0 for experiments in (A and C).

The subject of the next assay is KLK3. In words: Hydrolysis by KLK3 of IL-10R2-derived FRET peptides containing F or Y. The format is biochemical, human. The note with it: 2 nM KLK3, 20 mM Tris-HCl, 1 mM EDTA, 1.5 M sodium citrate, pH 7.8, 37 °C. An excerpt:
Obtained from a baculovirus-insect cell line system, purified, and activated as previously reported,[14] MUGB (4-methylumbelliferyl p-guanidino benzoate hydrochloride) was used for the spectrofluorimetric determination of molar concentrations of active KLK2.[15] KLK3 was obtained and assayed as previously reported.[3] […]
FRET Peptides with F FRET Peptides with Y
Abz-MNSVNFKNIL-Q-E DD np Abz-FTAQYLSYR-Q-EDD np
Abz-WESPAFAKGN-Q-EDD np Abz – AQYL SYRIF-Q-EDDnp
Abz-KGNLTFT AQY-Q-EDDnp Abz-SSLSKYGDHT-Q-EDD np
Abz-LSYRIFQDKA-Q-EDD np Abz-KIENEYET WT-Q-EDDnp
Abz-LTEADFSSLS-Q-EDD np Abz-TMKNVYNSWT-Q-ED Dnp
Abz-RVRAEFADEH-Q-EDDnp Abz-NSWTYNVQ-Q-EDDnp
Abz-HSDWVNITFAPVD-Q-EDDnp Abz-NVQYWKNG-Q-EDDnp
Abz-SLHMRFL AP K-Q-EDD np Abz-QITPQYDFEV-Q-EDD np
Abz-GTDEKFQ IT P-Q-EDD np Abz – EPWTTYAVQR-Q-EDD np
Conditions of reactions: 2 nM KLK3, 20 mM Tris -HCl, 1 mM EDTA, 1.5 M sodium citrate, pH 7.8, at 37 °C.
The sequence o f FRET peptide with F or Y in the middle of the sequence can be identiﬁed in the IL-
10R2 ectodomain sequence around F or Y, as shown b e l o w. Cysteines were substituted by Alanine (A)
1 MAWSLGSWLGGCLLVSALGMVPPPENVRMNSVNFKNILQWESPAFAKGNLTFTAQYLSYR.
61 IFQDKCMNTTLTECDFSSLSKYGDHTLRVRAEFADEHSDWVNITFCPVDDTIIGPPGMQV.
121 EVL ADSLHMR FL APKIENEY ET W TMKNVYN SWTYNVQYWK NGTDEKFQIT PQYDFEVLRN.
181 LEPW TTYCVQ VRGF LPDRNK AGEWSEPVCE QTTHDETVPS.

A further assay concerns BMDM cells. In words: BMDM activation with LPS/IFN-γ: NO, TNF-α and IL-12 p40 in supernatant. The format is cell-based, C57Bl/6 mice. The note with it: 72 h, Griess, ELISA; for IL-10 inhibition of NO, TNF-α and IL-12 p40 generation in pretreated BMDM: pretreatment 7.5 μg/mL for 2 h, then LPS 200 ng/mL / IFN-γ 100 U/mL ± IL-10 10 ng/mL. The method, then: BMDM were obtained from C57Bl/6 mice and used as previously reported.[17]
For BMDM activation assays in vitro, cells were plated at a density of 10^5 cells/mL in 96-well plates at 37 °C in the absence and presence of KLK2 or KLK3 (7.5 μg/mL) for 2 h. The cells were then washed with PBS and treated with LPS (200 ng/mL)/IFN-γ (100 U/mL) stimuli in the presence or absence of recombinant IL-10 (10 ng/mL). The activation response of BMDM cells was evaluated after 72 h by quantification of nitric oxide (NO), TNF-α, and IL-12 p40 in the supernatant of BMDM cell cultures. NO was quantified using the Griess assay,[19] and the cytokines TNF-α and IL-12 p40 were quantified using sandwich enzyme-linked immunosorbent assay (ELISA) kits (B.D. Biosciences) following the manufacturer’s instructions.
Figure 3 KLK2 converts BMDM cells to a pro-inflammatory status characterized by maintaining NO, TNF-α, and IL-12p40 levels, even in the presence of recombinant IL-10. BMDM cells from C57Bl/6 mice were incubated in a 96-well plate (1 × 10^5 cells) with KLK2 (7.5 μg/mL) or KLK3 (7.5 μg/mL) for 2 h. After this, cells were washed and incubated with or without lipopolysaccharide (LPS) (200 ng/mL), IFN-γ (IFN), and recombinant IL-10 (IL10). (A) NO quantified in the culture supernatant by the Griess method. (B) TNF-α and (C) IL-12 p40 cytokines were quantified by ELISA in culture supernatants. MΦ = control macrophages. * p-value <0.001, analyzed by ANOVA with Tukey’s multiple comparisons.
On the technique in general: The Griess reaction detects nitrite, a stable product of nitric oxide.

*: point of attachment. EDDnp = O=[N+]([O-])c1ccc(NCCN*)c([N+](=O)[O-])c1

Turning to `O=C([O-])CC(O)(CC(=O)[O-])C(=O)[O-].[Na+].[Na+].[Na+]` [sodium citrate], in the assay on KLK2, the “effect of salt on KLK2 activity” value was “ten times more efficient activator of KLK2 than sodium sulfate”. On to “Abz-WESPAFAKGN-Q-EDD np (Abz-WESPAFAKGNQ-EDDnp) [Abz-WESPAFAKGN-Q-EDDnp, FRET peptide with F derived from IL-10R2 ectodomain]”, for which the “hydrolysis by KLK3 (in words)” value in the assay with KLK3 is recorded as “resistant to hydrolysis by KLK3”. Take “KLK2: human prostate kallikrein-2, recombinant, from a baculovirus-insect cell line system”: the “IL-10 inhibition of NO, TNF-α and IL-12 p40 generation in pretreated BMDM” value in the assay with BMDM cells is listed as “these IL-10 inhibitory effects were not observed”.

As to “KLK3: human kallikrein-related peptidase 3 (PSA—prostatic-specific antigen)”, the “IL-10 inhibition of NO, TNF-α and IL-12 p40 generation in pretreated BMDM” value in the assay with BMDM cells is “did not show these effects”. For chondroitin sulfate, the “effect of glycosaminoglycan on KLK2 activity” value with KLK2 was “inhibitory”. As to dermatan sulfate, in the assay on KLK2, the “effect of glycosaminoglycan on KLK2 activity” value was “activate KLK2 in sub- and micromolar concentrations, respectively”. Still for that read-out and setting: the value for heparan sulfate was “activate KLK2 in sub- and micromolar concentrations, respectively”. On the same count and under the same terms, the value for heparin was “almost no effect”.

B1: recombinant IL-10: recombinant IL-10 (10 ng/mL) used in BMDM activation assay (protein, UniProt P18893 19-178, looked up)
Interleukin-10: SRGQYSREDNNCTHFPVGQSHMLLELRTAFSQVKTFFQTKDQLDNILLTDSLMQDFKGYLGCQALSEMIQFYLVEVMPQAEKHGPEIKEHLNSLGEKLKTLRMRLRRCHRFLPCENKSKAVEQVKSDFNKLQDQGVYKAMNEFDIFINCIEAYMMIKMKS
Regarding B1, the “generation of NO, TNF-α and IL-12 p40 in LPS/IFN-γ activated BMDM” value with BMDM cells (IL-10 10 ng/mL, LPS 200 ng/mL / IFN-γ 100 U/mL) is “reduced the generation of NO, TNF-α, and IL-12 p40”.
